We go through 15 molecules from patent publication US9394268B2, “(E)-1-(5-methoxy-2,2-dimethyl-2H-chromen-8-yl)-3-(4-methoxyphenyl)prop-2-en-1-one and analogs thereof, as well as preparation method and use thereof” (Sichuan University, priority 2012, dated 2016).

What all share (type): cell-based
Test [1] concerns A549. The test is described as follows: Cell proliferative assay (MTT), A549. The note with it: Homo sapiens, 72 h incubation, read-out: IC50s A549. Here is the method: (§1) The synthesized compounds were evaluated for their cytotoxin activity against suspended tumor cells. These cells were seeded on 96-well plates and incubated for 24 h. Selected compounds were added at various doses and incubated for 72 h, MTT was then added, and the absorbance was measured at a wavelength of 590 nm. IC50 values are expressed as the mean±SEM from the dose-response curves of at least three independent experiments.

In test [2] the test system is K562. The test is described as follows: Cell proliferative assay (MTT), K562. The note with it: Homo sapiens, 72 h incubation, read-out: IC50s K562. Here is the method:
as §1

The subject of test [3] is HepG2. The test is described as follows: Cell proliferative assay (MTT), HepG2. The note with it: Homo sapiens, 72 h incubation, read-out: IC50s HepG2. Here is the method: as §1
Test [4] has as its system LO2. The test is described as follows: Cell proliferative assay (MTT), LO2. Conditions: Homo sapiens, L02, 72 h incubation, read-out: IC50s LO2. As for the experimental part: as §1
Test [5] concerns A375. Put plainly: Cell proliferative assay (MTT), A375. The note with it: Homo sapiens, A-375, 72 h incubation, read-out: IC50s A375. As for the experimental part:
as §1

Test [6] concerns SMMC-7221. The test is described as follows: Cell proliferative assay (MTT), SMMC-7221. The note with it: 72 h incubation, read-out: IC50s SMMC-7221. As for the experimental part:
as §1

`CCN(CC)c1ccc(/C=C/C(=O)c2ccc(OC(C)=O)c3c2OC(C)(C)C=C3)cc1` [SKLBC-48, (E)-8-(3-(4-(diethylamino)phenyl)acryloyl)-2,2-dimethyl-2H-chromen-5-yl acetate]: the IC50 in test [1] is 17.1 µM; in test [2] it was 8.75 µM; in test [3], above 10 µM; in test [4], above 20 µM; in test [5], 9.6 µM; in test [6], above 10 µM.
As to `CCCCC(=O)Oc1ccc(C(=O)/C=C/c2ccc(N(CC)CC)cc2)c2c1C=CC(C)(C)O2` [SKLBC-51, (E)-8-(3-(4-(diethylamino)phenyl)acryloyl)-2,2-dimethyl-2H-chromen-5-ylpentanoate], the IC50 in test [1] is above 20 µM; in test [2], above 10 µM; in test [3] it was above 10 µM; in test [4], 20 µM; in test [5], above 10 µM; in test [6], above 10 µM.
Consider `CCN(CC)c1ccc(/C=C/C(=O)c2ccc(OS(=O)(=O)C3CC3)c3c2OC(C)(C)C=C3)cc1` [SKLBC-53, (E)-8-(3-(4-(diethylamino)phenyl)acryloyl)-2,2-dimethyl-2H-chromen-5-yl cyclopropanesulfonate], for which the IC50 in test [1] is above 10 µM; in test [2], 4.25 µM; in test [3] it was 8.2 µM; in test [4], above 10 µM; in test [5] it was 3.75 µM; in test [6] it was 3.38 µM.
In the case of `CCN(CC)c1ccc(/C=C/C(=O)c2ccc(OC(=O)C3C4C[C@H]5C[C@@H](C4)C[C@@H]3C5)c3c2OC(C)(C)C=C3)cc1` (some centres unmarked) [SKLBC-56, (1r,3r,5r,7r)-8-((E)-3-(4-(diethylamino)phenyl)acryloyl)-2,2-dimethyl-2H-chromen-5-yl adamantane-2-carboxylate], the IC50 in test [1] was 9.1 µM; in test [3], 9.45 µM; in test [4], above 10 µM; in test [5], above 10 µM; in test [6], 0.59 µM.
For `COc1ccc(/C=C/C(=O)c2ccc(OC)c3c2OC(C)(C)C=C3)cc1OCCN1CCOCC1` [SKLBC-57, (E)-1-(5-methoxy-2,2-dimethyl-2H-chromen-8-yl)-3-(4-methoxy-3-(2-morpholinoethoxy)phenyl)prop-2-en-1-one], the IC50 is above 10 µM in test [1]; above 10 µM in test [2]; above 10 µM in test [3]; above 20 µM in test [4]; above 10 µM in test [5]; above 10 µM in test [6].
Take `COc1ccc(/C=C/C(=O)c2ccc(OC)c3c2OC(C)(C)C=C3)cc1OCCO` [SKLBC-58, (E)-3-(3-(2-hydroxyethoxy)-4-methoxyphenyl)-1-(5-methoxy-2,2-dimethyl-2H-chromen-8-yl)prop-2-en-1-one]: the IC50 is 0.58 µM in test [1]; 0.5 µM in test [2]; 0.226 µM in test [3]; above 10 µM in test [4]; 0.67 µM in test [5]; 1.32 µM in test [6].
For the molecule `COc1ccc(/C=C/C(=O)c2ccc(OC)c3c2OC(C)(C)C=C3)cc1OCCN1CCCC1` [SKLBC-59, (E)-1-(5-methoxy-2,2-dimethyl-2H-chromen-8-yl)-3-(4-methoxy-3-(2-(pyrrolidin-1-yl)ethoxy)phenyl)prop-2-en-1-one], the IC50 in test [1] was above 10 µM; in test [2] it was above 10 µM; in test [3] it was above 10 µM; in test [4], above 20 µM; in test [5], above 10 µM; in test [6], above 10 µM.
As to `COc1ccc(/C=C/C(=O)c2ccc(OC)c3c2OC(C)(C)C=C3)cc1OCCN1CCCCC1` [SKLBC-60, (E)-1-(5-methoxy-2,2-dimethyl-2H-chromen-8-yl)-3-(4-methoxy-3-(2-(piperidin-1-yl)ethoxy)phenyl)prop-2-en-1-one], the IC50 was above 10 µM in test [1]; above 10 µM in test [2]; above 10 µM in test [3]; above 20 µM in test [4]; above 10 µM in test [5]; above 10 µM in test [6].
As for `COc1ccc(/C=C/C(=O)c2ccc(OC)c3c2OC(C)(C)C=C3)cc1OCCCN(C)C` [SKLBC-61, (E)-3-(3-(3-(dimethylamino)propoxy)-4-methoxyphenyl)-1-(5-methoxy-2,2-dimethyl-2H-chromen-8-yl)prop-2-en-1-one], the IC50 was 0.44 µM in test [1]; 0.58 µM in test [2]; 0.44 µM in test [3]; above 10 µM in test [4]; 1.05 µM in test [5]; 1.15 µM in test [6].
With `COc1ccc(/C=C/C(=O)c2ccc(OC)c3c2OC(C)(C)C=C3)cc1OC(=O)Cc1cccc(C(F)(F)F)c1` [SKLBC-62, (E)-2-methoxy-5-(3-(5-methoxy-2,2-dimethyl-2H-chromen-8-yl)-3-oxoprop-1-en-1-yl)phenyl 2-(3-(trifluoromethyl)phenyl)acetate], the IC50 in test [1], in test [2], in test [3], in test [5] and in test [6] was above 10 µM in each case.
In the case of `COc1cccc(C(=O)Oc2cc(/C=C/C(=O)c3ccc(OC)c4c3OC(C)(C)C=C4)ccc2OC)c1` [SKLBC-63, (E)-2-methoxy-5-(3-(5-methoxy-2,2-dimethyl-2H-chromen-8-yl)-3-oxoprop-1-en-1-yl)phenyl 3-methoxybenzoate], the IC50 in test [1], in test [2], in test [3], in test [5] and in test [6] was above 10 µM throughout.
As for `COc1ccc(/C=C/C(=O)Oc2cc(/C=C/C(=O)c3ccc(OC)c4c3OC(C)(C)C=C4)ccc2OC)cc1` [SKLBC-64, (E)-2-methoxy-5-((E)-3-(5-methoxy-2,2-dimethyl-2H-chromen-8-yl)-3-oxoprop-1-en-1-yl)phenyl 3-(4-methoxyphenyl)acrylate], the IC50 in test [1], in test [2], in test [3], in test [5] and in test [6] was above 10 µM in each case.
For the molecule `COc1ccc(/C=C/C(=O)c2ccc(OC)c3c2OC(C)(C)C=C3)cc1OC(=O)c1ccc(Br)cc1` [SKLBC-66, (E)-2-methoxy-5-(3-(5-methoxy-2,2-dimethyl-2H-chromen-8-yl)-3-oxoprop-1-en-1-yl)phenyl 4-bromobenzoate], the IC50 was 1.11 µM in test [2]; 0.368 µM in test [3]; 8.4 µM in test [4]; 0.413 µM in test [5]; 2.34 µM in test [6].
As to `COc1ccc(/C=C/C(=O)c2ccc(OC)c3c2OC(C)(C)C=C3)cc1NCc1ccccc1` [SKLBC-90, (E)-3-(3-(benzylamino)-4-methoxyphenyl)-1-(5-methoxy-2,2-dimethyl-2H-chromen-8-yl)prop-2-en-1-one], the IC50 in test [1] was 10 µM; in test [2] it was 9.28 µM; in test [3], 4.85 µM; in test [4] it was above 10 µM; in test [6], above 10 µM.
Turning to `CCC(=O)Nc1cc(/C=C/C(=O)c2ccc(OC)c3c2OC(C)(C)C=C3)ccc1OC` [SKLBC-93, (E)-N-(2-methoxy-5-(3-(5-methoxy-2,2-dimethyl-2H-chromen-8-yl)-3-oxoprop-1-en-1-yl)phenyl)propionamide], the IC50 in test [1] is above 10 µM; in test [2], 2.4 µM; in test [3], 4.55 µM; in test [4] it was 7.8 µM; in test [6] it was 5.1 µM.
